{"source": "patent US20120064090A1", "about": "“THERAPEUTIC AGENT FOR CANCER HAVING REDUCED SENSITIVITY TO MOLECULAR TARGET DRUG AND PHARMACEUTICAL COMPOSITION FOR ENHANCING SENSITIVITY TO MOLECULAR TARGET DRUG” (KRINGLE PHARMA INC., priority 2009, published 2012)", "key": {"H1975 [1]": {"tested_on": "H1975", "experiment": "Effects of gefitinib or CL-387,785 on H1975, MTT growth rate", "assay_type": "cell-based, human", "conditions": "0.01 to 10 μM, 72 hours, FIG. 8", "procedure": "(§1) After 80% confluent H1975 was stripped and collected, the cells were seeded at 2×10^3 cells/well on 96-well plates and cultured for 24 hours. After that, gefitinib or CL-387,785 was added to each well so that the final concentration might be set to the seven levels of 0.01 to 10 μM, and then culture was continued for 72 hours. After that, 50 μl, of an MTT solution (2 mg/mL, manufactured by Sigma) was added and incubation was performed at 37° C. for 2 hours. The culture media were removed, and dark blue crystals were dissolved by adding 100 μL of DMSO. The absorbance was measured with a microplate reader MTP-120 (Corona Electric Co., Ltd.) at the detection and reference wavelengths of 550 nm and 630 nm, respectively. The growth rate was shown as a relative value based on an untreated control. Each experiment was performed in triplicate and repeated thrice independently."}, "PC-9 [2]": {"tested_on": "PC-9", "experiment": "Effects of SU11274 on PC-9 with HGF-induced gefitinib-resistance", "assay_type": "cell-based, human", "conditions": "HGF 20 ng/mL, gefitinib 0.3 μM, antibody 1 μg/mL, NK4 0.3 μM, SU11274 0.3 μM, 72 hours, FIG. 11", "procedure": "as §1, with “PC-9” for “After 80% confluent H1975”, “was” for “was stripped and collected, the cells were”, “After that, gefitinib or CL-387,785 was added to each well so that the final concentration might be set to the seven levels of 0.01 to 10 μM, and then culture was continued for 72 hours.” left out, “μL” for “μl,”"}, "H1975 [3]": {"tested_on": "H1975", "experiment": "Effects of SU11274 on H1975 with HGF-induced CL-387,785-resistance", "assay_type": "cell-based, human", "conditions": "CL-387,785 0.3 μM, HGF 50 ng/mL, antibody 2 μg/mL, NK4 0.3 μM, 72 hours, FIG. 12", "procedure": "H1975 was seeded at 2×10^3 cells/well on 96-well plates and cultured for 24 hours. […] The degree of cell growth was measured by the MTT method and the growth rate was calculated in the same manner as in the above (a)."}, "PC-9/HGF": {"tested_on": "PC-9/HGF", "experiment": "PC-9 transfected with HGF expression vector, MTT growth rate", "assay_type": "cell-based, human", "conditions": "gefitinib 0.3 μM, 72 hours, FIG. 4", "procedure": "(§2) An HGF expression vector was prepared according to the description in “Ueki T, Kaneda Y, Tsutsui H, et al. Hepatocyte growth factor gene therapy of liver cirrhosis in rats. Nature Medicine 5, 226-230 (1 Feb. 1999)”. On the day before transfection, PC-9 prepared in a culture medium without any antibiotics was seeded at 2×10^4 cells/400 μL on 24-well plates and then cultured for 24 hours. The HGF expression vector was transfected into the cells by use of Lipofectamine 2000 (1 μL) (PC-9/HGF). As a control, a vector without the HGF gene was similarly transfected into the cells (PC-9/mock). After 24-hour culture, the cells were washed with PBS. Then, 0.3 μM of gefitinib (final concentration), 2 μg/mL of the anti-human HGF neutralizing antibody (final concentration) and/or 2 μg/mL of the control IgG (final concentration) were added, or not added, and then culture was continued for 72 hours. After 72-hour culture, the degree of cell growth was measured by the MTT method and the growth rate was calculated in the same manner as in Example 1."}, "PC-9/mock": {"tested_on": "PC-9/mock", "experiment": "PC-9 transfected with vector without the HGF gene, MTT growth rate", "assay_type": "cell-based, human", "conditions": "gefitinib 0.3 μM, 72 hours, FIG. 4", "procedure": "as §2"}, "[4]": {"tested_on": "tumor formed of PC-9 and MRC-5 cells", "experiment": "Xenograft tumor (PC-9 + MRC-5) transplanted into SCID mice", "assay_type": "in vivo", "conditions": "PC-9 + MRC-5 s.c., days 4 to 16, gefitinib 25 mg/kg/day oral, antibody 5 mg/kg/day i.p., NK4 9 mg/kg/day i.p., FIG. 6", "procedure": "SCID mice (female, 5 weeks old) were purchased from CLEA Japan.\n100 μL of a cell suspension containing PC-9 (5×10^6 cells) and MRC-5 (5×10^6 cells) was subcutaneously inoculated from the back skin of each SCID mouse. Four days later, mice bearing a tumor exceeding 4 mm in diameter were randomly divided into 6 groups (5 mice per group) as shown in Table 1.\nIn gefitinib-treated groups (groups 4, 5 and 6 in Table 1), gefitinib (25 mg/kg/day) was orally administered once daily in the morning for 13 days from 4 days to 16 days after cell inoculation. In gefitinib-non-treated groups (groups 1, 2 and 3 in Table 1), a water containing 1% Tween80 was orally administered once daily in a similar manner to the above. In anti-HGF neutralizing antibody-treated groups (groups 2 and 5 in Table 1), the anti-HGF neutralizing antibody (5 mg/kg/day) was intraperitoneally administered once daily immediately after gefitinib administration for 13 days from 4 days to 16 days after cell inoculation. In NK4-treated groups (groups 3 and 6 in Table 1), NK4 (9 mg/kg/day) was intraperitoneally administered in divided portions twice a day in the morning immediately after gefitinib administration and in the evening for 13 days from 4 days to 16 days after cell inoculation.\nThe width and length of tumor were measured every other day, and the tumor area (width×length) was calculated. […]"}, "HCC827 [5]": {"tested_on": "HCC827", "experiment": "Induction of gefitinib resistance by various growth factors", "assay_type": "cell-based, human", "conditions": "growth factor 20 ng/mL, gefitinib 0.3 or 1 μM, 72 hours, FIG. 3(b)", "procedure": "(§3) In the same manner as in the above (a), PC-9 or HCC827 was seeded at 2×10^3 cells/well on 96-well plates, and after 24-hour culture, gefitinib was added to the wells so that the final concentration might be 0.3 or 1 μM. HGF, EGF, TGF-α or IGF-I was further added to give a final concentration of 20 ng/mL and then culture was continued for 72 hours. Wells without gefitinib and wells into which a culture medium was added instead of the growth factors were prepared for this experiment. After 72-hour culture, the degree of cell growth was measured by the MTT method and the growth rate was calculated in the same manner as in the above (a)."}, "PC-9 [6]": {"tested_on": "PC-9", "experiment": "Induction of gefitinib resistance by various growth factors", "assay_type": "cell-based, human", "conditions": "growth factor 20 ng/mL, gefitinib 0.3 or 1 μM, 72 hours, FIG. 3(a)", "procedure": "as §3"}, "H1975 [7]": {"tested_on": "H1975", "experiment": "Induction of CL-387,785 resistance by HGF", "assay_type": "cell-based, human", "conditions": "HGF 50 ng/mL, CL-387,785 0.03 to 3 μM, 72 hours, FIG. 9", "procedure": "In the same manner as in the above (a), H1975 was seeded at 2×10^3 cells/well on 96-well plates. After 24-hour culture, CL-387,785 was added to the wells so that the final concentration might be set to the five levels of 0.03 to 3 μM. An HGF solution was further added to give a final concentration of 50 ng/mL, or was not added, and then culture was continued for 72 hours. The degree of cell growth was measured by the MTT method and the growth rate was calculated in the same manner as in the above (a)."}, "PC-9 [8]": {"tested_on": "PC-9", "experiment": "Single culture of PC-9 with or without HGF, MTT growth rate", "assay_type": "cell-based, human", "conditions": "PC-9 single culture; HGF 50 ng/mL; gefitinib 0.3 μM; 72 hours; FIG. 5", "procedure": "In the case of single culture of PC-9, PC-9 was seeded in each well of 24-well plates at 8×10^3 cells/700 μL and then cultured for 24 hours. After that, 50 ng/mL of HGF (final concentration) was added or not added, 0.3 μM of gefitinib (final concentration) was added or not added, 2 μg/mL of the control IgG (final concentration) or 2 μg/mL of the anti-human HGF neutralizing antibody (final concentration) was added or not added, and then culture was continued for 72 hours. After 72-hour culture, the degree of cell growth was measured by the MTT method and the growth rate was calculated in the same manner as in Example 1."}, "HCC827 [9]": {"tested_on": "HCC827", "experiment": "Induction of gefitinib resistance by HGF, MTT growth rate", "assay_type": "cell-based, human", "conditions": "HGF 2 to 50 ng/mL, gefitinib 0.01 to 1 μM, 72-hour culture, FIG. 1(b)", "procedure": "(§4) PC-9 or HCC827 was seeded at 2×10^3 cells/well on 96-well plates and cultured for 24 hours. After that, gefitinib and HGF were added to the wells in combinations thereof at different concentrations. Specifically, gefitinib was added to each well so that the final concentration might be set to the five levels of 0.01 to 1 μM. Wells without gefitinib were also prepared for this experiment. An HGF solution was added to the wells so that the final concentration might be set to the five levels of 2 to 50 ng/mL. Wells without HGF were also prepared for this experiment. After 72-hour culture, 50 μL of an MTT solution (2 mg/mL, manufactured by Sigma) was added and incubation was performed at 37° C. for 2 hours. The culture media were removed, and dark blue crystals were dissolved by adding 100 μL of DMSO. The absorbance was measured with a microplate reader MTP-120 (Corona Electric Co., Ltd.) at the detection and reference wavelengths of 550 nm and 630 nm, respectively. The growth rate was shown as a relative value based on an untreated control. Each experiment was performed in triplicate and repeated thrice independently."}, "PC-9 [10]": {"tested_on": "PC-9", "experiment": "Induction of gefitinib resistance by HGF, MTT growth rate", "assay_type": "cell-based, human", "conditions": "HGF 2 to 50 ng/mL, gefitinib 0.01 to 1 μM, 72-hour culture, FIG. 1(a)", "procedure": "as §4"}}}
{"molecule": "CC#CC(=O)Nc1ccc2ncnc(Nc3cccc(Br)c3)c2c1", "note": "[CL-387,785]", "values": [{"measurement": "sensitivity of H1975 to the drug (growth rate)", "setting": "H1975 [1]", "value": "sensitive"}]}
{"molecule": "Cc1[nH]c(/C=C2\\C(=O)Nc3ccc(S(=O)(=O)N(C)c4cccc(Cl)c4)cc32)c(C)c1C(=O)N1CCN(C)CC1", "note": "[SU11274, reference compound]", "values": [{"measurement": "inhibition of HGF-induced hyposensitivity of PC-9 to gefitinib", "setting": "PC-9 [2]", "value": "significantly inhibited"}, {"measurement": "inhibition of HGF-induced hyposensitivity of H1975 to CL-387,785", "setting": "H1975 [3]", "value": "significantly inhibited"}]}
{"molecule": "COc1cc2ncnc(Nc3ccc(F)c(Cl)c3)c2cc1OCCCN1CCOCC1", "note": "[gefitinib]", "values": [{"measurement": "sensitivity of cells to gefitinib (growth rate)", "setting": "PC-9/HGF", "value": "less sensitive"}, {"measurement": "sensitivity of cells to gefitinib (growth rate)", "setting": "PC-9/mock", "value": "sensitive"}, {"measurement": "tumor volume / tumor growth over time", "setting": "[4]", "value": "increase in tumor volume was inhibited, but no significant regression was observed"}, {"measurement": "sensitivity of H1975 to the drug (growth rate)", "setting": "H1975 [1]", "value": "resistant"}]}
{"molecule": "EGF (NSDSECPLSHDGYCLHDGVCMYIEALDKYACNCVVGYIGERCQYRDLKWWELR; Epidermal growth factor; UniProt P01133 971-1023, looked up) [growth factor purchased from Invitrogen]", "values": [{"measurement": "induction of gefitinib resistance by growth factor (growth rate)", "setting": "HCC827 [5]", "value": "slightly induced gefitinib resistance"}, {"measurement": "induction of gefitinib resistance by growth factor (growth rate)", "setting": "PC-9 [6]", "value": "slightly induced gefitinib resistance"}]}
{"molecule": "HGF", "values": [{"measurement": "effect of HGF on sensitivity of H1975 to CL-387,785", "setting": "H1975 [7]", "value": "reduced the sensitivity of H1975 to CL-387,785"}, {"measurement": "induction of gefitinib resistance by growth factor (growth rate)", "setting": "HCC827 [5]", "value": "remarkable capability of inducing gefitinib resistance"}, {"measurement": "induction of gefitinib resistance by growth factor (growth rate)", "setting": "PC-9 [6]", "value": "remarkable capability of inducing gefitinib resistance"}, {"measurement": "induction of gefitinib resistance (hyposensitivity) of PC-9", "setting": "PC-9 [8]", "value": "induced gefitinib resistance"}, {"measurement": "induction of gefitinib resistance (growth rate)", "setting": "HCC827 [9]", "value": "induced gefitinib resistance of PC-9 and HCC827 in a concentration-dependent manner"}, {"measurement": "induction of gefitinib resistance (growth rate)", "setting": "PC-9 [10]", "value": "induced gefitinib resistance of PC-9 and HCC827 in a concentration-dependent manner"}]}
{"molecule": "IGF-I", "values": [{"measurement": "induction of gefitinib resistance by growth factor (growth rate)", "setting": "HCC827 [5]", "value": "slightly induced gefitinib resistance"}, {"measurement": "induction of gefitinib resistance by growth factor (growth rate)", "setting": "PC-9 [6]", "value": "slightly induced gefitinib resistance"}]}
{"molecule": "TGF-α", "values": [{"measurement": "induction of gefitinib resistance by growth factor (growth rate)", "setting": "HCC827 [5]", "value": "slightly induced gefitinib resistance"}, {"measurement": "induction of gefitinib resistance by growth factor (growth rate)", "setting": "PC-9 [6]", "value": "slightly induced gefitinib resistance"}]}
